Data from publication PMC8645336, “Benchmarking a highly selective USP30 inhibitor for enhancement of mitophagy and pexophagy” (Life Science Alliance, 2021).

Legend:
[1] = target: T1, OTUD6B (Homo sapiens, UniProt Q8N6M0); assay: biochemical; set-up: Ubiquigent DUB profiler selectivity panel, remaining enzyme activity as % of control; settings: read-out: % of control remaining
T1 sequence (Q8N6M0 1-293): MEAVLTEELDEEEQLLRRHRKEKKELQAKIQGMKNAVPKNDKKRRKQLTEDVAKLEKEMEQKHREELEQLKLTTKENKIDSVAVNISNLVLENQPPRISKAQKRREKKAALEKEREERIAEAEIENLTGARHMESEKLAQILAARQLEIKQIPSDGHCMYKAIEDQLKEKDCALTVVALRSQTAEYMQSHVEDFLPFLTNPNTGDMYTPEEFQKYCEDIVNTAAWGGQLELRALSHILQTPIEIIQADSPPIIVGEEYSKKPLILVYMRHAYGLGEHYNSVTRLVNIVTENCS
Method in brief: (§1)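 CMPD-39 selectivity was profiled at 1-100 μM across >40 DUBs. Cellular engagement used 2 h CMPD-39 pretreatment, then HA-Ub-PA probe for 10 min at 37°C, with USP30 band shift on immunoblot. TOMM20 ubiquitylation was blotted in YFP-PRKN hTERT-RPE1 cells after 1 h antimycin A/oligomycin A (1 μM each).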

[2] = target: T2, USP19 (Homo sapiens, UniProt O94966); assay: biochemical; set-up: Ubiquigent DUB profiler selectivity panel, remaining enzyme activity as % of control; settings: read-out: % of control remaining
T2 sequence (O94966 1-1318): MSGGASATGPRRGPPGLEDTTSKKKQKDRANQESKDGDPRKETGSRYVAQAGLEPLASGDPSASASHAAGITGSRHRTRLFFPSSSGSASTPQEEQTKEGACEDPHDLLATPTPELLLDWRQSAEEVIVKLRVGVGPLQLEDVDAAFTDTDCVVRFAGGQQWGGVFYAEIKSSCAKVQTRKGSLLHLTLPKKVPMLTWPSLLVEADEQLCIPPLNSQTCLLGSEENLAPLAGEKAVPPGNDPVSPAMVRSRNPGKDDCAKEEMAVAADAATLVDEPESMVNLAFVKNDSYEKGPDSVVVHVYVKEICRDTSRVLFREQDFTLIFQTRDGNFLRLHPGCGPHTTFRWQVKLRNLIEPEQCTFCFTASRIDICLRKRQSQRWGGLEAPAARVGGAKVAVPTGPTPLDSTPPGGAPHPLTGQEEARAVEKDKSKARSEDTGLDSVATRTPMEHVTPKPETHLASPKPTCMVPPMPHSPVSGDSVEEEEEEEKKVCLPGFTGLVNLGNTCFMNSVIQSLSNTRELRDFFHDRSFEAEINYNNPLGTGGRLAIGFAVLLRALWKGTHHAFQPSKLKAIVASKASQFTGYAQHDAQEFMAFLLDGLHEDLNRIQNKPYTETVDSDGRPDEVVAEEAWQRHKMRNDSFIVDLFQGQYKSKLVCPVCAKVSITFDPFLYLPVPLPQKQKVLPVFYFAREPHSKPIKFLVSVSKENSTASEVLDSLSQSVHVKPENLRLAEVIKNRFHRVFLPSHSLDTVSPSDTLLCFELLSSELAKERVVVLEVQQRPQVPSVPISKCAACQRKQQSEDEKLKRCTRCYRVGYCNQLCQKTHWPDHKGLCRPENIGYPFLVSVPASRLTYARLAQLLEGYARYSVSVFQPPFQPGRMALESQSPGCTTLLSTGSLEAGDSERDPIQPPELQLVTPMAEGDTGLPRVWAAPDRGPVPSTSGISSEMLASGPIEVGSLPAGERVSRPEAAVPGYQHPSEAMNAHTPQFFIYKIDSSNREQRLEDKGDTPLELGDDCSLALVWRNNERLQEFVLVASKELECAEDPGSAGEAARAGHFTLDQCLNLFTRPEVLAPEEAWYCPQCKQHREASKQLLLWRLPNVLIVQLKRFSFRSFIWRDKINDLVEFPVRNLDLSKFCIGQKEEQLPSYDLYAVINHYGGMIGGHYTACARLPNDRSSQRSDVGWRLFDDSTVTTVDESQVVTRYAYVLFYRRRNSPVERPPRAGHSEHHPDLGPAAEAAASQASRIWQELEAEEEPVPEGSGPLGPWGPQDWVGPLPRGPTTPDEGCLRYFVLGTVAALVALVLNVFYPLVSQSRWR
Method in brief: as §1

- remaining activity at 1 µM [1]: 110%
- remaining activity at 10 µM [1]: 100%
- remaining activity at 100 µM [1]: 101%
- remaining activity at 1 µM [2]: 107%
- remaining activity at 10 µM [2]: 99.7%
- remaining activity at 100 µM [2]: 99.8%
SMILES: CC(C)(C)NS(=O)(=O)c1ccc(NC(=O)[C@H](Cc2ccccc2)NC(=O)c2ccc(F)cc2)cc1 [compound 39, CMPD-39]
